Measured values: the supplement of paper PMC10307832

These cell lines were tested with CC1=CC(=C(N1C2=CC=C(C=C2)Cl)C)C(=O)CN3CCCCC3 [IU1-47] + Nc1nc2[nH]cc(CCc3ccc(C(=O)N[C@@H](CCC(=O)O)C(=O)O)cc3)c2c(=O)[nH]1 [Pemetrexed] (partner 0.2 µM) (assay: relative viability (nuclei count vs DMSO), 5 days (fraction); higher = more cells survive). Settings: first compound 8 µM.
Procedure, shortened: (§1)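 Relative viability divides the nuclei count in treated wells by that in vehicle wells. Lung cancer cell lines were seeded in 1536-well plates, dosed by pin tool the next day, and fixed and stained after 5 days in one step with final 0.05% Triton X-100, 1% formaldehyde and 1 ug/ml Hoechst. Dosing was a single drug or a fixed anchor-drug dose plus five library-drug doses (not always all listed) in √10 steps, and values are medians of duplicate plates imaged at 4×.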

Cell Line	relative viability
NCI-H1395	0.738
NCI-H1792	0.35
NCI-H1793	0.629
NCI-H1563	0.716
NCI-H1944	0.58
NCI-H358	0.165

What follows are cell lines tested with Cc1nc(C(=O)NCC(=O)O)c(O)c2ccc(Oc3ccccc3)cc12 [FG-4592] + Cc1nc(Nc2ncc(C(=O)Nc3c(C)cccc3Cl)s2)cc(N2CCN(CCO)CC2)n1 [Dasatinib] (partner 0.075 µM) in the same assay as above. Settings: first compound 0.08 µM.
Procedure, shortened: as §1

Cell Line	relative viability
NCI-H522	0.887
NCI-H1623	0.505
NCI-H727	0.375
NCI-H1650	0.304
NCI-H1993	0.513
SW 1573	0.528
NCI-H838	0.271
LCLC-103H	0.414
NCI-H520	0.171
NCI-H2126	0.642
EMC-BAC-2	0.374
NCI-H2085	0.17
HCC-366	0.624
NCI-H1666	0.812
NCI-H596	0.573
LK-2	0.281
NCI-H2087	0.793

Cell Line	relative viability
NCI-H2342	0.312
SK-MES-1	0.534
H3255	0.361
COR-L23	0.467
COR-L 105	0.309
LOU-NH91	0.554
ChaGo-K-1	0.584
NCI-H2170	0.592
NCI-H2405	0.218
SW 900	0.889
NCI-H1395	0.446
NCI-H1792	0.871
NCI-H1793	0.37
NCI-H1563	0.465
NCI-H1944	0.251
ABC-1	0.532
NCI-H358	0.16

Same assay, conditions: first compound 0.253 µM

Cell Line	relative viability
NCI-H522	0.892
NCI-H1623	0.555
NCI-H727	0.473
NCI-H1650	0.361
NCI-H1993	0.631
SW 1573	0.344
NCI-H838	0.262
LCLC-103H	0.492
NCI-H520	0.206
NCI-H2126	0.578
EMC-BAC-2	0.361
NCI-H2085	0.228
HCC-366	0.607
NCI-H1666	0.792
NCI-H596	0.736
LK-2	0.304
NCI-H2087	0.864

Cell Line	relative viability
NCI-H2342	0.281
SK-MES-1	0.434
H3255	0.418
COR-L23	0.47
COR-L 105	0.306
LOU-NH91	0.521
ChaGo-K-1	0.577
NCI-H2170	0.478
SW 900	0.57
NCI-H1395	0.416
NCI-H1792	0.72
NCI-H1793	0.311
NCI-H1563	0.465
NCI-H1944	0.207
ABC-1	0.463
NCI-H358	0.19

Same assay, conditions: first compound 0.8 µM

Cell Line	relative viability
NCI-H522	0.801
NCI-H1623	0.446
NCI-H727	0.326
NCI-H1650	0.281
NCI-H1993	0.473
SW 1573	0.522
NCI-H838	0.226
LCLC-103H	0.311
NCI-H520	0.133
NCI-H2126	0.476
EMC-BAC-2	0.274
NCI-H2085	0.196
HCC-366	0.339
NCI-H1666	0.801
NCI-H596	0.418
NCI-H2087	0.862

Cell Line	relative viability
NCI-H2342	0.316
SK-MES-1	0.351
H3255	0.417
COR-L23	0.504
COR-L 105	0.294
LOU-NH91	0.512
ChaGo-K-1	0.516
NCI-H2170	0.412
NCI-H2405	0.231
SW 900	0.444
NCI-H1395	0.373
NCI-H1792	0.846
NCI-H1563	0.397
NCI-H1944	0.177
ABC-1	0.48
NCI-H358	0.162

Same assay, conditions: first compound 2.53 µM

Cell Line	relative viability
NCI-H522	0.843
NCI-H1623	0.486
NCI-H727	0.49
NCI-H1650	0.295
NCI-H1993	0.547
SW 1573	0.354
NCI-H838	0.27
LCLC-103H	0.342
NCI-H520	0.157
NCI-H2126	0.506
EMC-BAC-2	0.311
NCI-H2085	0.254
HCC-366	0.573
NCI-H1666	0.794
NCI-H596	0.537
LK-2	0.262
NCI-H2087	0.861

Cell Line	relative viability
NCI-H2342	0.341
SK-MES-1	0.365
H3255	0.404
COR-L23	0.446
COR-L 105	0.258
LOU-NH91	0.559
ChaGo-K-1	0.542
NCI-H2170	0.59
NCI-H2405	0.184
SW 900	0.55
NCI-H1395	0.364
NCI-H1792	0.668
NCI-H1793	0.354
NCI-H1563	0.466
NCI-H1944	0.199
ABC-1	0.59
NCI-H358	0.145

Same assay, conditions: first compound 8 µM

Cell Line	relative viability
NCI-H522	0.829
NCI-H1623	0.468
NCI-H727	0.41
NCI-H1650	0.342
NCI-H1993	0.396
SW 1573	0.406
NCI-H838	0.207
LCLC-103H	0.408
NCI-H520	0.157
NCI-H2126	0.384
EMC-BAC-2	0.296
NCI-H2085	0.264
HCC-366	0.414
NCI-H1666	0.808
NCI-H596	0.562
LK-2	0.277
NCI-H2087	0.757
NCI-H2342	0.311
SK-MES-1	0.34
